Results published in patent US20050069544A1, “Pharmaceutical composition and a method of treatment” (priority 1998, published 2005).
“Also recorded” adds a separate entry of the source.

Key:
HLA-DR15 transgenic mice = test: Tolerisation in vivo to RhD protein in HLA-DR15 transgenic mice
Method: HLA-DR15 transgenic mice were immunised twice with 2 mg/ml purified RhD protein. The first subcutaneous injection was followed 14 days later by an intraperitoneal injection. Mice were sacrificed 14 days after the final injection. The spleen was removed and blood collected by cardiac puncture.
Fourteen days before RhD immunisation (as above) 25 μl of 2 mg/ml soluble RhD peptides were administered by the intranasal route.
Fourteen days before RhD immunisation (as above) 25 μl of 2 mg/ml soluble RhD peptides were administered by the subcutaneous route.
Splenocytes were homogenised and a single cell suspension was isolated over 40 μm mesh filters (Becton Dickinson) and resuspended to 1.25×10^6 cells/ml in the Alpha Modification of Eagle's Medium (ICN Flow, Bucks UK) supplemented with 5% autologous serum, 4 mM L-Glutamine (Gibco, Paisley, UK), 100 U/ml sodium benzylpenicillin G (Sigma), 100 μg/ml streptomycin sulphate (Sigma), 5×10^−5 2-mercaptoethanol (Sigma) and 20 mM HEPES pH7.2 (Sigma). All plates were incubated at 37° C. in a humidified atmosphere of 5% CO2/95% air. The cell proliferation in cultures was estimated from the incorporation of ^3H-thymidine (Amersham) in triplicate wells 5 days after stimulation with antigen. Proliferation results are presented either as the mean CPM±SD of the triplicate samples, or as a stimulation index (SI) expressing the ratio of mean CPM in stimulated versus unstimulated control cultures. An SI>3 with CPM>500 is interpreted as representing a positive response.
Round bottomed microtitre plates (Nunc, Roskilde, Denmark) were blocked in phosphate buffered saline pH 7.4 (PBS) containing 0.2% bovine serum albumin (BSA), before addition of 50 μl 2% v/v washed human D-positive RBC. Test sera were incubated at 50 μl per well with triplicate RBC samples for 1 hour at 37° C. and washed three times in PBS-BSA before fixing for 30 minutes in 0.15% glutaraldehyde (Sigma, Dorset, UK) to prevent lysis of the cells in the alkaline conditions required later in the test. The fixed RBC were transferred to fresh, pre-blocked, 96-well plates and washed before incubation with 50 μl per well 1 μg/ml goat anti-mouse IgG γ-chain specific antibody (Sigma) or goat anti-mouse IgM μ-chain specific antibody (Sigma) for 1 hour at 37° C. After washing, the plates were incubated with 50 μl per well 1 μg/ml rabbit anti-goat IgG alkaline phosphatase (Sigma) for 1 hour at 37° C., washed, and 100 μl of phosphatase substrate solution was then incubated in each well for 1 hour at 37° C. After pelleting of the RBC by centrifugation, 50 μl of each supernatant was transferred into the wells of fresh, flat-bottomed microtitre plates (Nunc) and the absorbance measured at 405 nm, with 492 nm as a reference, using a multiscan plate reader (Labsystems, Basingstoke, UK). Each result is expressed as the mean of triplicate wells. Inter-assay variation was controlled for by including previously tested RBC samples on each plate.
It is known from other animal models (Elson C J & Barker R N. Helper T-cells in antibody mediated, organ specific autoimmunity. Curr Opin Immunol, 2000; 12:664-669) that mucosal administration of immunodominant peptides which induce an immune response when given with adjuvant by the parenteral route will inhibit responsiveness, and induce antigen specific tolerance. To test the effectiveness of peptides containing immunodominant allo-RhD helper epitopes in preventing antibody response to the RhD protein, HLA-DR15 transgenic mice were used for the in vivo testing of these peptides as most alloimmunised donors responding to RhD bear this MHC class II allele.

[1] = tested on: CD3+ CD4+ T-cells of RhD-alloimmunised donors; test: Three colour flow cytometry of CD3, CD4 and intracellular IFN-γ or IL-10 in PBMC from RhD-alloimmunised donors; type: cell-based, human; conditions: CD3+ gated, representative alloimmune donor, 5 days; for proportion of CD4+ IL-10+ T-cells: unstimulated cultures 2.4%; for proportion of CD4+ IFN-γ+ T-cells: unstimulated cultures 4.2%
Method: (§1) The secretion of cytokines identified in Example 1.3 by T-helper cells is confirmed by flow cytometery analysis. Simultaneous measurement of surface molecules CD3 and CD4 and intracellular cytokines IFN-γ or IL-10 was carried out using three colour flow cytometry analysis in PBMC, isolated from RhD-alloimmunised donors, cultured with either no antigen or RhD peptide for five days after stimulation. All analysis was carried out using Expo v2 analysis software (applied Cytometry Systems). The CD3+ T-cells were gated open and the numbers of IFN-γ+ and CD4+ cells were assessed. In all donors tested there was a significant increase in the proportion of CD4+ IFN-γ+CD3+ T-cells to at least one of the RhD peptides tested. In the representative example shown in FIGS. 12A to 12L it can be seen that the proportion of CD4+ IFN-γ+cells was 4.2% in unstimulated cultures (FIG. 12E). […] The IL-10 and CD4+ expression was also assessed on CD3+ gated population of T-cells. In PBMC cultures isolated from the alloimmune donor shown, there was an increase in the proportion of CD4+ IL-10+T-cells from 2.4% in unstimulated PBMC cultures (FIG. 12I) to 6.5% in culture stimulated with RhD peptide 13 (FIG. 12J) to 6.2% in cultures stimulated with RhD peptide 17 (FIG. 12K) and 5.9% with RhD peptide 28 (FIG. 12L).

[2] = tested on: PBMC from RhD alloimmunised donors; test: Cell proliferation assay (3H-thymidine) of PBMC from RhD alloimmunised donors stimulated with RhD peptides; type: cell-based, human; conditions: peptide 20 μg/ml, 5 days
Method: Five complete panels of 68 15-mer peptides, with 5 or 10 amino acid overlaps, were synthesized (Multiple Peptide Service, Cambridge Research Biochemicals, Cheshire, UK and Dept. Of Biochemistry, University of Bristol, UK), corresponding to the sequences of the 30 kD Rh proteins associated with expression of the RhD or RhcE/ce/Ce/CE blood group antigens respectively (Tables 1 to 5). An additional three peptide sequences is added to the panel of RhD peptides to account for the Ile to Met substitution described earlier (numbered from 69 to 71). The amino acid sequences for each of these proteins were deduced from cDNA analyses (FIG. 1). In order to ensure purity, each panel was synthesized by fluorenylmethoxycarbonyl chemistry on resin using a base-labile linker, rather than by conventional pin technology, and randomly selected peptides were screened for purity by HPLC and amino acid analysis.
Peripheral blood mononuclear cells (PBMC) from donors or patients were separated from fresh blood samples using Ficoll-Hypaque. The donors and patients had become alloimmunised with RhD-positive blood either through pregnancy, a blood transfusion or through immunization with the relevant blood.
PBMC were cultured in 100 μl volumes in microtitre plates at a concentration of 1.25×10^6 cells/ml in an Alpha Modification of Eagle's Medium (ICN Flow, Bucks UK) supplemented with 5% autologous serum, 4 mM L-Glutamine (Gibco, Paisley, UK), 100 U/ml sodium benzylpenicillin G (Sigma), 100 μg/ml streptomycin sulphate (Sigma), 5×10^−5M 2-mercaptoethanol (Sigma) and 20 mM HEPES pH7,2 (Sigma). All plates were incubated at 37° C. in a humidified atmosphere of 5% CO2/95% air. The cell proliferation in cultures was estimated from the incorporation of ^3H-Thymidine in triplicate wells 5 days after stimulation with antigen as described previously. Proliferation results are presented either as the mean CPM+/−SD of the triplicate samples, or as a stimulation index (SI), expressing the ratio of mean CPM in stimulated versus unstimulated control cultures. An S1>3 with CPM>1000 is interpreted as representing a positive response.

[3] = tested on: CD3+ CD4+ T-helper cells of AIHA patients; test: Flow cytometry of CD3, CD4 and intracellular cytokines in PBMC from AIHA patients; type: cell-based, human; conditions: AIHA patient; for CD3+ CD4+ population of T-helper cells: FIGS. 23A to 23D; for CD4+ T-helper cells expressing intracellular IFN-γ: FIGS. 23E to 23H
Method: as §1
The secretion of cytokines identified in Example 2.3 by T-cells is confirmed utilising the experiments mentioned in Example 1.4, which were repeated using PBMC isolated from patients with AIHA.

[4] = tested on: PBMC from RhD-alloimmunised donors; test: celELISA of cytokine production (IL-10, TGF-β1) by PBMC from RhD alloimmunised donors; type: cell-based, human
Method: Cultured T-cells are stimulated with each of the epitopes given in Table 1 and after 5 days the responding cells were transferred to flat-bottomed microtitre plates (96-well Nunc-Immuno Maxisorp) coated with […] per well of monoclonal anti-cytokine capture antibody diluted in 0.05M alkaline carbonate coating buffer pH 9.6. Unbound capture antibody was removed by two washes with HBSS and non-specific binding potential blocked by incubation with 200 μl per well of phosphate buffered saline, pH 7.4 (PBS containing 3% BSA).
Five days after stimulation, lymphocyte cultures were mixed to resuspend the cells and duplicate 100 μl aliquots were transferred into wells coated with the respective capture antibody specific for IFN-γ, IL-10 or TGF-β. The plates coated with capture antibodies and layered by lymphocytes were then incubated for a further 24 hours at 37° C. in a humidified atmosphere of 5% CO2 and 95% air. After this incubation the PBMC were removed by four washes with 0.2% Tween/PBS. One hundred microlitre aliquots of the appropriate biotinylated monoclonal detection antibody in 0.2% BSA/PBS were then added to the wells and incubated at room temperature for 45 minutes.
After six washes with 0.5% Tween/PBS, 100 μl of 1:100,000 ExtrAvidin-alkaline phosphatase conjugate (Sigma) was then added to each of the wells and incubated at room temperature for 30 minutes. The ExtrAvidin conjugate was removed by eight washes with 0.2% Tween/PBS, and the plates developed using 100 μl per well of p-nitrophenyl phosphate (Sigma) 1.0 mg/ml in 0.05M carbonate alkaline buffer pH9.6. The absorbance at 405 nm was then measured using a Multiscan plate reader (Labsystems Basingstoke UK).
Cytokine secretion was measured by interpolation from a standard curve generated by incubating duplicate wells with doubling dilutions of recombinant human IFN-γ or IL-10 or TGF-β (Pharmingen). The standard curves were modelled by a smoothed cubic spline function applied to the absorbance reading and the cytokine concentrations after a quasilogarithmic transformation, where: quasiloge(z)=loge[z+{square root}[z^2+1]).
Using celELISA technique, the 68 RhD peptide panel was screened for the ability to induce IL-10 and TGF-β production for PBMC from a total of 19 samples from 12 different alloimmune donors. PMBC from 10 out of the 12 RhD-alloimmunised donors could produce IL-10 to at least one of the RhD peptides on at least one occasion, with a total of 194 significant IL-10 responses to the RhD peptides between all the donors. The RhD peptides that induced significant TGF-β or IL-10 and proliferative responses from PBMC in all the samples screened are summarised in FIGS. 10 and 11.

[5] = peptide intranasal 14 days before RhD immunisation
[6] = nasal administration of peptide prior to RhD immunisation
[7] = peptide parenteral (subcutaneous) before RhD immunisation

AYFGLSVAWCLPKPL (Residue 177-191 RhD; listed as Homo sapiens) [peptide 28]
RhD-specific proliferation by splenocytes after prior tolerisation (HLA-DR15 transgenic mice; [5]): reduction in the RhD-specific proliferation | proportion of CD4+ IL-10+ T-cells [1]: 5.9% | proportion of CD4+ IFN-γ+ T-cells [1]: 10.2% | proliferative T-cell response to RhD peptides [2]: most commonly targeted

FLSQFPSGKVVITLF (Residue 97-111 RhD; listed as Homo sapiens) [peptide 13]
RhD-specific proliferation by splenocytes after prior tolerisation (HLA-DR15 transgenic mice; [5]): reduction in the RhD-specific proliferation | proportion of CD4+ IL-10+ T-cells [1]: 6.5% | proliferative T-cell response to RhD peptides [2]: most commonly targeted

GALFLWMFWPSFNSA (Residue 212-226 RhD; listed as Homo sapiens) [compound 35]
CD3+ CD4+ population of T-helper cells [3]: expansion of a CD3+ CD4+population of T-helper cells | CD4+ T-helper cells expressing intracellular IFN-γ [3]: expansion of CD4+ T-helper cells that express intracellular IFN-γ

QDLTVMAAIGLGFLT (Residue 52-66 RhD; listed as Homo sapiens) [peptide 6]
RhD-specific proliferation by splenocytes after prior tolerisation (HLA-DR15 transgenic mice; [5]): reduction in the RhD-specific proliferation | RhD-specific proliferation by splenocytes after prior tolerisation (HLA-DR15 transgenic mice; peptide intranasal 14 days before RhD immunisation, listed as p6): reduced T-cell response to RhD protein | serum anti-human RBC antibody, rr red blood cells (HLA-DR15 transgenic mice; peptide intranasal before RhD immunisation): reduction of anti-human RBC antibody | IL-10 production by PBMC ([4]; FIG. 3 and FIG. 10): commonly induce the production of IL-10; also recorded: induce IL-10 production in the absence of a proliferative response or the production of IFN-γ or IL-4 | proliferative T-cell response to RhD peptides [2]: most commonly targeted

SIRLATMSALSVLIS (Residue 112-126 RhD; listed as Homo sapiens) [peptide 16]
IL-10 production by draining lymph node cells (HLA-DR15 transgenic mice; [6]): increase | TGF-β1 production by draining lymph node cells (HLA-DR15 transgenic mice; [6]): increase | TGF-β1 production by PBMC ([4]; FIG. 3 and FIG. 11): commonly induce the production of TGF-β1 | proliferative T-cell response to RhD peptides [2]: most commonly targeted

TMSALSVLISVDAVL (Residue 117-131 RhD; listed as Homo sapiens) [peptide 17]
RhD-specific proliferation by splenocytes after prior tolerisation (HLA-DR15 transgenic mice; [5]): reduction in the RhD-specific proliferation | proportion of CD4+ IL-10+ T-cells [1]: 6.2% | proportion of CD4+ IFN-γ+ T-cells [1]: 20.3% | proliferative T-cell response to RhD peptides [2]: most commonly targeted; also recorded: induces significant PBMC proliferation | percentage of donors in whom a proliferative response was elicited ([2]; SI>3 with CPM>1000 positive, FIG. 6): 70%

VGAGNGMIGFQVLLS (Residue 352-366 RhD; listed as Homo sapiens) [compound 60]
RhD-specific proliferation by splenocytes after prior tolerisation (HLA-DR15 transgenic mice; [7]): reduced T-cell response to RhD protein | serum anti-human RBC antibody, rr red blood cells (HLA-DR15 transgenic mice; [7]): no change | CD3+ CD4+ population of T-helper cells [3]: expansion of a CD3+ CD4+population of T-helper cells | CD4+ T-helper cells expressing intracellular IFN-γ [3]: expansion of CD4+ T-helper cells that express intracellular IFN-γ
